Measured values: ChEMBL document CHEMBL5584327, “Phenylstyrylpyrimidine derivatives as potential multipotent therapeutics for Alzheimer's disease” (RSC Med Chem, 2024)
pIC50: −log10 of the molar value. The source made the active and inactive calls. The rule behind the calls is not given here.

Columns and labels:
[1] = molecular target: T1, Amine oxidase [flavin-containing] B (Homo sapiens, UniProt P27338); assay: Inhibition of human MAO-B using p-tyramine as substrate preincubated for 15 mins followed by substrate addition and measured after 30 mins by Amplex Red reagent based fluorescence analysis
T1 sequence (P27338 whole entry): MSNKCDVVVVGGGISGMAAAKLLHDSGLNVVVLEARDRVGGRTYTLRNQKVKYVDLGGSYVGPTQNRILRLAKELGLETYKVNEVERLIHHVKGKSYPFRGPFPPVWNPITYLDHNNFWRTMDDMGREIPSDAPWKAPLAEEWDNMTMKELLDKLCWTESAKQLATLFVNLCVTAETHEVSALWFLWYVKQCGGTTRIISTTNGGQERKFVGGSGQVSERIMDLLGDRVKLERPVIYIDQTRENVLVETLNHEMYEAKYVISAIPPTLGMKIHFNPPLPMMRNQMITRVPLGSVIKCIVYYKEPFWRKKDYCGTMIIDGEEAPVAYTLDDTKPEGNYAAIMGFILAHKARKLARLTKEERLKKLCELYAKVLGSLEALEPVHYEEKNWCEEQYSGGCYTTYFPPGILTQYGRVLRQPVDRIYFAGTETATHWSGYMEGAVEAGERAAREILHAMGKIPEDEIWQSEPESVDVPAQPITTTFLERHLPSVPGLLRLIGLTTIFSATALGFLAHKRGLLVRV

[2] = molecular target: T2, Amine oxidase [flavin-containing] A (Homo sapiens, UniProt P21397); assay: Inhibition of human MAO-A at 10 uM using p-tyramine as substrate incubated for 30 mins by Amplex Red reagent based fluorescence analysis relative to control; conditions: 0.5 h
T2 sequence (P21397 whole entry): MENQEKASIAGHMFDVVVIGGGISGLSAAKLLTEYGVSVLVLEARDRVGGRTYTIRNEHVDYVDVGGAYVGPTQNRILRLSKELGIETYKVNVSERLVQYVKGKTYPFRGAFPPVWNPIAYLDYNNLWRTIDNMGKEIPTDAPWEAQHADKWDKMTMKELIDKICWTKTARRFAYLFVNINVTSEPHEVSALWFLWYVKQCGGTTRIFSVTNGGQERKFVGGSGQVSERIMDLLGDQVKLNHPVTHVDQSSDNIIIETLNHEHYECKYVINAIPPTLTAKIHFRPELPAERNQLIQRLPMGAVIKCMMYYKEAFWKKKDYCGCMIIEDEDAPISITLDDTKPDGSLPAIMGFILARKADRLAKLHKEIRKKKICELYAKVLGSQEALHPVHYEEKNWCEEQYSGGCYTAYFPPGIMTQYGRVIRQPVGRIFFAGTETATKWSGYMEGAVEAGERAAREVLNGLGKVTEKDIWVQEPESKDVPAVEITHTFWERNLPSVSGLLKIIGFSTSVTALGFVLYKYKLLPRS

[3] = molecular target: T1, Amine oxidase [flavin-containing] B; assay: Inhibition of human MAO-B at 10 uM using p-tyramine as substrate incubated for 30 mins by Amplex Red reagent based fluorescence analysis relative to control; conditions: 0.5 h
[4] = molecular target: Cholinesterase (Equus caballus) (UniProt P81908); assay: Inhibition of equine BuChE at 25 uM using butyryl-thiocholine iodide as substrate incubated for 30 min by DTNB reagent based Ellman's method
Sequence of Cholinesterase (Equus caballus) (P81908 whole entry): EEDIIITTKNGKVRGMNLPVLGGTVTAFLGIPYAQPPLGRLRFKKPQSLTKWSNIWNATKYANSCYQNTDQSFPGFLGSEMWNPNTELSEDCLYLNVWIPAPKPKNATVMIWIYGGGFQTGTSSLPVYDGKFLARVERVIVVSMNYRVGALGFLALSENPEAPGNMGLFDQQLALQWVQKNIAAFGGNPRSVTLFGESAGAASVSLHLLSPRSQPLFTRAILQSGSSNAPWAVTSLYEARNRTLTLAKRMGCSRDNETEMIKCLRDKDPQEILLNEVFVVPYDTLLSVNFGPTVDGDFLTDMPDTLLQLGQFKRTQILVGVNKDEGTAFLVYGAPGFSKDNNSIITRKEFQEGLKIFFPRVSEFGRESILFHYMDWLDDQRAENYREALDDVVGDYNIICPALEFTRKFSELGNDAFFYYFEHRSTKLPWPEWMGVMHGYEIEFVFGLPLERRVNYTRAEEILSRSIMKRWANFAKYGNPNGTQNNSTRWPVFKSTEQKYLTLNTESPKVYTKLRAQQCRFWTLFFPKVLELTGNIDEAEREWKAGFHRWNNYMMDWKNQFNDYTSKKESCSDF

[5] = molecular target: Acetylcholinesterase (Electrophorus electricus) (UniProt O42275); assay: Inhibition of electric eel AChE at 20 uM using acetylthiocholine iodide as substrate incubated for 30 min by DTNB reagent based Ellman's method relative to control
Sequence of Acetylcholinesterase (Electrophorus electricus) (O42275 24-633 limits assumed): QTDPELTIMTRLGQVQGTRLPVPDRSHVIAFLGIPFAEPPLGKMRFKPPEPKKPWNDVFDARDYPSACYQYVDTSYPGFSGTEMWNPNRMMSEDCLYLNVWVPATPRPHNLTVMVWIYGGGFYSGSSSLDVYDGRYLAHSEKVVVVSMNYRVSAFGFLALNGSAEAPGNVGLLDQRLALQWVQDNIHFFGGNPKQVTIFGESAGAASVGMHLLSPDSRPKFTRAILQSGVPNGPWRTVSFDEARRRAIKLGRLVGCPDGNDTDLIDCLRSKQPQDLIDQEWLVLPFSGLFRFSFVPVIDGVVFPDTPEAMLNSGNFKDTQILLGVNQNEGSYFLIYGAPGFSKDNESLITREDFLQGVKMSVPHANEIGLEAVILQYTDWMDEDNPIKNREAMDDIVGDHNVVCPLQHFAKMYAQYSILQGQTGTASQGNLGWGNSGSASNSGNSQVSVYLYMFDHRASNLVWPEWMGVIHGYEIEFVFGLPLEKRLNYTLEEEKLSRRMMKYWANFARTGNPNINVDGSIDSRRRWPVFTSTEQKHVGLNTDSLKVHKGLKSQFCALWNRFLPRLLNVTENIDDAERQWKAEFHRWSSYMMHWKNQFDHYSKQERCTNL

Acetylcholinesterase [6] = molecular target: Acetylcholinesterase (Homo sapiens, UniProt P22303); assay: Inhibition of AChE (unknown origin)
Sequence of Acetylcholinesterase (Homo sapiens, UniProt P22303) (P22303 whole entry): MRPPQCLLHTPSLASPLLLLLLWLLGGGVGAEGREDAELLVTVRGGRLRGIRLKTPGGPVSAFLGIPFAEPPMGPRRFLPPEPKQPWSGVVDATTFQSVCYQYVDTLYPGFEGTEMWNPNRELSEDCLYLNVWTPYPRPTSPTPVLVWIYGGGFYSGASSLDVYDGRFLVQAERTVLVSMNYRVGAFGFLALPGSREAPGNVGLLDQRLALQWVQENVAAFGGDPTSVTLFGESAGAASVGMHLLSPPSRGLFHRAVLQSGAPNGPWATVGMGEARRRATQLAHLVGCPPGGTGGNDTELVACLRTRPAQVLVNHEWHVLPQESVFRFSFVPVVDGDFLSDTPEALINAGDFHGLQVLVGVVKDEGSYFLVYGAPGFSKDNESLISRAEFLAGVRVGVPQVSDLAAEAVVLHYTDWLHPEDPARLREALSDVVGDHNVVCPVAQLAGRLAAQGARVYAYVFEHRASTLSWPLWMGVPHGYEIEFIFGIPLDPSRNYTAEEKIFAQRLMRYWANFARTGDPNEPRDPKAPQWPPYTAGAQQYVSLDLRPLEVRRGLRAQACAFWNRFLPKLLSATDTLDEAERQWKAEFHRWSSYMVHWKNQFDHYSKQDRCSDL

[7] = molecular target: Cholinesterase (Equus caballus) (UniProt P81908); assay: Inhibition of equine BuChE at 20 uM using butyryl-thiocholine iodide as substrate incubated for 30 min by DTNB reagent based Ellman's method relative to control
[8] = molecular target: Acetylcholinesterase (Electrophorus electricus) (UniProt O42275); assay: Non-competitive inhibition of electric eel AChE assessed as decrease in Vmax using acetylthiocholine iodide as substrate incubated for 30 min by Ellman's method based Lineweaver-Burk plot analysis
[9] = Cytotoxicity against human SH-SY5Y cells assessed as cell viability at 1 uM by MTT assay (reference value: 100 +/- 0.22); format: toxicity, cell-based; conditions: read-out: Activity
[10] = molecular target: T1, Amine oxidase [flavin-containing] B; assay: Inhibition of human MAO-B assessed as residual activity at 100 time IC50 concentration using p-tyramine as substrate incubated for 30 mins by Amplex Red reagent based fluorescence analysis (reference value: 100 +/- 0.37%); conditions: 0.5 h
[11] = molecular target: Acetylcholinesterase (Electrophorus electricus) (UniProt O42275); assay: (§1) Reversible inhibition of electric eel AChE assessed as residual activity at 100 time IC50 concentration using acetylthiocholine iodide as substrate incubated for 30 min followed by 100-fold dilution with substrate and buffer solutions by DTNB reagent based Ellman's method (reference value: 100 +/- 0.37%)
Acetylcholinesterase [12] = molecular target: Acetylcholinesterase (Electrophorus electricus, UniProt O42275); assay: Inhibition of electric eel AChE using acetylthiocholine iodide as substrate incubated for 30 min by DTNB reagent based Ellman's method
Sequence of Acetylcholinesterase (Electrophorus electricus, UniProt O42275) (O42275 whole entry): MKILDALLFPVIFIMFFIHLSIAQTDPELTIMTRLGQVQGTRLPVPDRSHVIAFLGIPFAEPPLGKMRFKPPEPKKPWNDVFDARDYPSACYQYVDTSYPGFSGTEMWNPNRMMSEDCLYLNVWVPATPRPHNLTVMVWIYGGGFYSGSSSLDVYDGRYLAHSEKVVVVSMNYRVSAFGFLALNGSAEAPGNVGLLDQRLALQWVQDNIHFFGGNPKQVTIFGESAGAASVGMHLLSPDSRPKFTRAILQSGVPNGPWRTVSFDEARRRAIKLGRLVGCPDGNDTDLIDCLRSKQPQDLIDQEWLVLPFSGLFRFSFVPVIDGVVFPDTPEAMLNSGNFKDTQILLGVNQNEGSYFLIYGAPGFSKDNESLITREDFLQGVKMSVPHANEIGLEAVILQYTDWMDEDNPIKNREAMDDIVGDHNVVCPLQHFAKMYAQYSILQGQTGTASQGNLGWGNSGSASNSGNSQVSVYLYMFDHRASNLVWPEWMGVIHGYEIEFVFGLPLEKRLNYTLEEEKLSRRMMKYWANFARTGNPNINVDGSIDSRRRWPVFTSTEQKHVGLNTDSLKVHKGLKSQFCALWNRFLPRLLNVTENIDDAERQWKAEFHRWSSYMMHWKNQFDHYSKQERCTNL

[13] = molecular target: Acetylcholinesterase (Electrophorus electricus) (UniProt O42275); assay: as §1, with “at 10” for “at 100”
[14] = molecular target: T1, Amine oxidase [flavin-containing] B; assay: Inhibition of human MAO-B assessed as residual activity at 10 time IC50 concentration using p-tyramine as substrate incubated for 30 mins by Amplex Red reagent based fluorescence analysis (reference value: 100 +/- 0.37%); conditions: 0.5 h
[15] = molecular target: T1, Amine oxidase [flavin-containing] B; assay: Inhibition of human MAO-B using p-tyramine as substrate incubated for 30 mins by Amplex Red reagent based fluorescence analysis
[16] = molecular target: T1, Amine oxidase [flavin-containing] B; assay: Reversible inhibition of human MAO-B assessed as residual activity at 10 time IC50 concentration using p-tyramine as substrate incubated for 30 mins followed by 100-fold dilution with substrate and buffer solutions by Amplex Red reagent based fluorescence analysis (reference value: 100 +/- 0.37%); conditions: 0.5 h
[17] = molecular target: Acetylcholinesterase (Electrophorus electricus) (UniProt O42275); assay: Non-competitive inhibition of electric eel AChE assessed as increase in Km using acetylthiocholine iodide as substrate incubated for 30 min by Ellman's method based Lineweaver-Burk plot analysis
[18] = molecular target: Amyloid-beta precursor protein (Homo sapiens) (UniProt P05067); assay: Inhibition of amyloid beta (1 to 42) (unknown origin) aggregation at 10 uM incubated for 24 hrs by ThT assay relative to control
Sequence of Amyloid-beta precursor protein (Homo sapiens) (P05067 whole entry): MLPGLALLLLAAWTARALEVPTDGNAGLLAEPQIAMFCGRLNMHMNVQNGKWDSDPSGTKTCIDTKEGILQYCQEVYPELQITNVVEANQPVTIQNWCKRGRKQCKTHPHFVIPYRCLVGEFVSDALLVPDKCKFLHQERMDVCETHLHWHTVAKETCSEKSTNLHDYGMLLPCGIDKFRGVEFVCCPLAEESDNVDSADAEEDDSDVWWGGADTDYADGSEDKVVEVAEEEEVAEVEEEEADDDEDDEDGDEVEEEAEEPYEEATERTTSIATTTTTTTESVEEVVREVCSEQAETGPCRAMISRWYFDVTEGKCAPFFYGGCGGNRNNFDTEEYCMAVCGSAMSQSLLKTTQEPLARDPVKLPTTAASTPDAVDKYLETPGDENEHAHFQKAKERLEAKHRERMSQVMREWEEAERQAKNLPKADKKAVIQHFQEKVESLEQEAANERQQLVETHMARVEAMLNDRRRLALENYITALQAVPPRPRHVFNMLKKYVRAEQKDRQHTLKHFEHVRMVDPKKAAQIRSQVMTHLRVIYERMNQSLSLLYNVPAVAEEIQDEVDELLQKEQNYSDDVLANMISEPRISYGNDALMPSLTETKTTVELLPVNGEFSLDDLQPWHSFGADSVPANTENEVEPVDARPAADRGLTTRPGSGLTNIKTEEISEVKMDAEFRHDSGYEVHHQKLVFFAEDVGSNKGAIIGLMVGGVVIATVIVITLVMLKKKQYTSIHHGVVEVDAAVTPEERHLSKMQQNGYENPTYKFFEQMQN

[19] = molecular target: Acetylcholinesterase (Electrophorus electricus) (UniProt O42275); assay: Inhibition of electric eel AChE assessed as residual activity at 100 time IC50 concentration using acetylthiocholine iodide as substrate incubated for 30 min by DTNB reagent based Ellman's method (reference value: 100 +/- 0.37%)
[20] = Cytotoxicity against human SH-SY5Y cells assessed as cell viability at 25 uM by MTT assay (reference value: 100 +/- 0.22); format: toxicity, cell-based; conditions: read-out: Activity
[21] = molecular target: T1, Amine oxidase [flavin-containing] B; assay: Reversible inhibition of human MAO-B assessed as residual activity at 100 time IC50 concentration using p-tyramine as substrate incubated for 30 mins followed by 100-fold dilution with substrate and buffer solutions by Amplex Red reagent based fluorescence analysis (reference value: 100 +/- 0.37%); conditions: 0.5 h
[22] = Cytotoxicity against human SH-SY5Y cells assessed as cell viability at 5 uM by MTT assay (reference value: 100 +/- 0.22); format: toxicity, cell-based; conditions: read-out: Activity
[23] = molecular target: Acetylcholinesterase (Electrophorus electricus) (UniProt O42275); assay: Inhibition of electric eel AChE assessed as residual activity at 10 time IC50 concentration using acetylthiocholine iodide as substrate incubated for 30 min by DTNB reagent based Ellman's method (reference value: 100 +/- 0.37%)
[24] = molecular target: T2, Amine oxidase [flavin-containing] A; assay: Inhibition of human MAO-A at 25 uM using p-tyramine as substrate incubated for 30 mins by Amplex Red reagent based fluorescence analysis; conditions: 0.5 h
[25] = molecular target: Amyloid-beta precursor protein (Homo sapiens) (UniProt P05067); assay: Inhibition of amyloid beta (1 to 42) (unknown origin) aggregation at 10 uM incubated for 48 hrs by ThT assay relative to control
[26] = molecular target: T1, Amine oxidase [flavin-containing] B; assay: Inhibition of MAO-B (unknown origin)
[27] = Inhibition of MAO (unknown origin); design: species or system Homo sapiens

SMILES	inhibition at 10 µM [2] [%]	inhibition at 10 µM [3] [%]	inhibition [5] [%]	inhibition [7] [%]	other results
C#CCOc1ccccc1-c1cc(-c2ccc(Cl)cc2)nc(-c2ccccc2)n1					pIC50 [1]: 6.32
C#CCOc1cccc(-c2cc(/C(C)=C/c3ccccc3)ncn2)c1	0.87	23.4	65.7		inhibition [4]: inactive
C#CCOc1ccc(-c2cc(-c3ccc(OCC#C)cc3)nc(N)n2)cc1					pIC50 (Acetylcholinesterase [6]): 5.87
C#CCOc1ccc(-c2cc(/C=C/c3ccccc3)nc(N)n2)cc1C	13.1	11.9	62.6		inhibition [4]: inactive
C#CCOc1cccc(-c2cc(/C=C/c3ccccc3)nc(C)n2)c1	15.5	2.96	61.6	3.17	
C#CCOc1ccc(-c2cc(/C(C)=C\c3ccccc3)ncn2)cc1		71.2	69	9.69	inhibition [8]: Active; viability at 1 µM [9]: 98.1%; Activity [10]: 2.79%; Activity [11]: 42.9%; pIC50 (Acetylcholinesterase [12]): 5.03; Activity [13]: 97.1%; Activity [14]: 2.79%; pIC50 [15]: 5.14; Activity [16]: 30.37%; inhibition [17]: Active; inhibition [18]: 21.6%; Activity [19]: 18.6%; viability at 25 µM [20]: 95.7%; Activity [21]: 36.07%; viability at 5 µM [22]: 96.3%; Activity [23]: 7.45%; inhibition (INH) [24]: Not Active; inhibition [25]: 23.2%
C#CCOc1cccc(-c2cc(/C=C/c3ccccc3)ncn2)c1	13.9	76.4	69.2	6.43	inhibition [8]: Active; viability at 1 µM [9]: 91%; Activity [10]: 3.4%; Activity [11]: 47.9%; pIC50 (Acetylcholinesterase [12]): 5.04; Activity [13]: 96.7%; Activity [14]: 2.6%; pIC50 [15]: 5.31; Activity [16]: 34.91%; inhibition [17]: Active; inhibition [18]: 29.3%; Activity [19]: 13.6%; viability at 25 µM [20]: 86.5%; Activity [21]: 36.72%; viability at 5 µM [22]: 90.7%; Activity [23]: 5.18%; inhibition [25]: 33%
Oc1ccc(/C=C/c2cc(O)cc(O)c2)cc1					inhibition [18]: 54.6%
C#CCOc1ccc(-c2cc(/C=C/c3ccccc3)nc(-c3ccccc3)n2)cc1	20.9	7.18	70.2	3.6	
C#CCNc1ccccc1-c1cc(-c2ccc(OCCN3CCCCC3)cc2)nc(N)n1					pIC50 (Acetylcholinesterase [6]): 4.40; pIC50 [26]: 6.43
C#CCOc1ccc(-c2cc(/C(C)=C/c3ccccc3)nc(C)n2)cc1	10.9	15.7	60.5		inhibition [4]: inactive
C#CCOc1ccccc1-c1cc(/C=C/c2ccccc2)nc(-c2ccccc2)n1	9.57	3.49	64.2	3.6	
C#CCOc1cccc(-c2cc(/C=C/c3ccccc3)nc(-c3ccccc3)n2)c1	0.4	4.89	69.6	1.5	
O=C1c2ccccc2-c2cnc(-c3ccccc3)nc21					pIC50 [27]: 5.63
C#CCOc1ccc(-c2cc(/C(C)=C/c3ccccc3)nc(N)n2)cc1	8.66	1.79	71.3	3.04	
C#CCOc1ccc(-c2cc(/C=C/c3ccccc3)nc(C)n2)cc1	10	20.9	62.8	8.16	
N#Cc1cccnc1N1CCN(c2cc(Oc3cccc4cccnc34)ncn2)CC1					pIC50 (Acetylcholinesterase [6]): 7.44
C#CCOc1ccc(-c2cc(/C=C/c3ccccc3)nc(C)n2)cc1C	0.96	0.27	67		inhibition [4]: inactive
C#CCOc1cccc(-c2cc(/C(C)=C\c3ccccc3)nc(N)n2)c1	12	69.7	66.3	7.03	pIC50 (Acetylcholinesterase [12]): 5.07; pIC50 [15]: 5.09
C#CCOc1ccc(-c2cc(/C=C\c3ccccc3)ncn2)cc1		67.5	63.4		pIC50 (Acetylcholinesterase [12]): 5.13; pIC50 [15]: 4.96; inhibition [4]: inactive; inhibition (INH) [24]: Not Active
C#CCOc1ccc(-c2cc(/C=C/c3ccccc3)nc(N)n2)cc1	8.61	9.28	68.5	2.12	
